In patent US6218112A, “Optimization of gene delivery and gene delivery system” (Cobra Therapeutics Limited, priority 1997, dated 2001):
pKd: −log10 of the molar value. “Also recorded” adds a separate entry of the source. * marks the point of attachment. Palmitoyl = CCCCCCCCCCCCCCCC(=O)*; Acm = CC(=O)NC*

Columns and labels:
[1] = test system: plasmid nucleic acid pRSVLuc; assay: Surface plasmon resonance (BIAcore) binding kinetics of peptides/conjugates to immobilized biotinylated plasmid DNA
Procedure: In the examples described below, SPR was detected using the BIAcore system. This machine contained an SPR detector and an integrated microfluidic cartridge which is engineered such that an analyte solution (cationic peptide) is continuously passed over the sensor chip. The sensor chip consists of a glass plate coated with a thin film of gold covered in a layer of carboyxymethyl dextran. The chip used has a dextran layer to which streptavidin is covalently attached. The chip is prepared for use by adding biotinylated nucleic acid which will be bound to the chip via the streptavidin-biotin interaction, and the same chip is used in a series of experiments.
As material binds to the immobilized nucleic acid molecule on the sensor chip, the SPR angle of plane polarized light shining on the surface of the chip is monitored by the detector. Changes in angle are defined as resonance units (RU) and data are collected every second. Background effects are detected and automatically subtracted by the use of a control flow cell in line with the nucleic acid flow cell.
A typical sensorgram has three phases: an association phase, an equilibrium phase and a dissociation phase (see FIG. 1). The rise in signal occurs as more peptide binds to the immobilized plasmid DNA until equilibrium conditions are reached. The height of the peak is directly proportional to the mass of peptide bound. If the flow continues with buffer containing no peptide, peptide begins to dissociate from the complex and the resonance signal is reduced. The sensorgram can be used to compute apparent rate constants for each of the three individual processes.
(1) dC/dt=ka [PF ] [Pmax -PB ]-kd [PB ]
Measurement of Binding Kinetics by Surface Plasmon Resonance
A 6 kilobase (kb) plasmid DNA (pRSVLuc) was biotinylated using photoactivatable biotin (Pierce and Warriner) as per manufacturer's instructions.
A sensor chip with immobilized streptavidin (SA5) was conditioned following manufacturer's instructions, i.e., three one-minute injections of 1 M NaCl: 50 mM NaOH followed by one 1 min injection of 0.5% SDS. Flow rate on the BlAcore sensing device was 20 μl per min, running buffer was phosphate buffered saline (PBS). Flow path was flow cells 1 and 2.
The flow path was switched to flow cell 2 only and the flow rate was reduced to 10 μl per minute. Biotinylated plasmid at a concentration of […] in 0.5M NaCl was injected for 3 mins.
Phosphate buffered saline was used as running buffer at a flow rate of 20 μl per minute. The flow path was over flow cells 1 and 2. Flow cell 1 was used as a reference cell. The experiments were carried out at a temperature of 25° C.
Peptides were injected at various concentrations for three minutes. The injection was followed by a 5 min dissociation phase before the injection port was washed. The sensor chip was regenerated by the injection of 2M NaCl for 1 min. If necessary, this injection was repeated to bring the response back down to baseline before the next peptide sample was injected.
The data was analysed using the methods described in the handbook (BIAevaluation 2.1. Software Handbook, Pharmacia Biosensor AB, Uppsala, Sweden).
Essentially the plots were evaluated as follows: The dissociation constant, kd, was determined first. A curve or family of curves (same NBC at different concentrations) were plotted as response (Y) versus time as Ln (Yo/Y) versus time. In the area where the Ln(Yo/Y) curve was linear, a fit of the default dissociation model [AB]=[A]+[B] was made. The association constant, ka, was then calculated by fitting the related association model on that part of the association curve where a plot of In(abs(dY/dt) versus time was linear. KD were approximated by dividing the calculated kd with the calculated ka.

cells = assay: Transfection efficiency / activity of complexes (general statement); assay type: cell-based; settings: related to affinity for nucleic acid
[2] = test system: KLN-205 squamous epithelial syngenic tumour cells; assay: In vivo transfection of KLN-205 tumours in DBA2 mice by local injection of peptide/plasmid complexes (nitroreductase immunostaining); design: species or system mouse; settings: 0.5 μg peptide/μg DNA, intratumoural injection
Procedure: A representative in via cell transfection system is transfection of tumor cells using a murine carcinoma model.
The murine carcinoma model DBA2 containing the squamous epithelial syngenic tumour cell line KLN-205 was prepared as described in the Examples. A transfecting complex was prepared using a solution of plasmid DNA encoding a reporter gene or, for example, nitroreductase and a selected NBC peptide 0.5 μg peptide/μg DNA, as described herein. Where desired, a conjugate peptide was added to the transfecting complex, at a concentration of 0.1-0.3 μg […] peptide/μg DNA.
Transfection efficiency may be determined in a number of ways, including assessing the effect of the reporter gene on the target tissue, or by quantitating the gene product. Below, tissues samples were obtained and nitroreductase gene expression was ascertained via staining of tissue sections.
The ability to transfect tumor cells in vivo in mice was tested using plasmid nucleic acid carrying the nitroreductase reporter gene condensed on each of the following peptides: NBC15, NBC8, NBC9, NBC11, NBC7.
DBA2--male mice, aged 5-10 weeks were injected subcutaneously in each flank with a squamous epithelial syngenic tumour cell line KLN-205. The cell line was grown up in 175 ml T-flasks in standard EMEM medium containing 10% foetal calf serum. When the cells reached a density of 4×10^6 they were suspended by a standard trypsinization technique, washed in PBS and diluted to a final concentration of […].
The anaesthetic was Enflurane (Alynane; Anaquest, Ltd., Windlesham, Surrey UK): Ketamine (10% Ketaset, Willows Francis Veterinary, Cramley, West Sussex, UK); Rompun (2%, Bayer UK, Ltd., Suffolk, UK). For 10 ml anaesthetic mixture: 8.5 ml PBS; 1 ml Ketamine; 0.5 ml Rompun. Each animal was injected intra-peritoneally with 200 μl/animal using 1 ml syringe with 25 gauge needle. Once anaesthetized, the tumour is manipulated between the fingers lifting it slightly away from the animal's body and at the same time apply minimum pressure to the tumour. Using a 0.5 ml insulin needle the formulated delivery vehicle (a plasmid containing the E. coli nitroreductase gene condensed on a peptide at a ratio of 0.5 μg peptide/μg DNA) to be injected is taken up and the tumour is injected horizontally trying to avoid any visible blood vessels and necrotic or abnormal tissue. Daily monitoring is continued until the experiment is terminated.
7μ sections of frozen tumour tissue are prepared using standard methods and a Cryostat and air dried. Sections are fixed with freshly prepared 4% PFA/PBS for 30 mins at room temperature and then washed twice with 0.01% Tween-20/PBS 5 mins each wash. Sections are then immersed in 0.25% hydrogen peroxide/PBS, at room temperature (20C.) for 30 mins, and then washed three times in 0.01% Tween 20/PBS for 5 mins each wash. Sections are then permeabilised by treatment with ice cold 0.1 % TRITON X-100 for 5 mins, followed by a further two washes in 0.01% Tween-20/PBS 5mins each wash. The sections are then blocked with 5% NGS/PBS 60mins at room temperature in a wetbox. After decanting the blocking solution, 0.5 ml diluted antiserum/slide (1:400 in 2.5% NGS) is added and the sections incubated for 60 mins at room temperature. Slides are then washed three times in 0.01% Tween-20/PBS 5 mins each wash. Secondary antibody (0.5 ml) from ABC Elite Vector stain kit is added as follows and incubated 30 mins at room temperature in a wetbox.
The tumour is a murine syngenic squamous carcinoma produced by subcutaneous injection of KLN205 cells. When the tumours were approximately 4 mm in diameter they were injected with 20 μl of plasmid DNA formulated with the NBC15 peptide. After 48 h the tumours were excised and sectioned by standard histological techniques and immunostained for expression of the transgene (E. coli nitroreductase). […] In this case the tumours were injected with the same plasmid formulated in 0.5 μg NBC9 peptide/μg DNA.

Jurkat cell line = assay: In vitro transfection with pRSVLuc (luciferase) condensed on peptides; assay type: cell-based; settings: peptide 2 μg/μg plasmid DNA, luciferase after 24 h, FIG. 7
Procedure: (§1) After incubation the cells are lysed and are assayed for gene expression. In the case of the luciferase reporter gene, luciferin and ATP are added to lysed cells and the light emitted is measured with a luminometer (see deWet et al., supra).
Cell lines such as Jurkat and K562 grow in suspension and can be transfected and the level of transgene expression (luciferase activity) determined b) the following method. Cells are harvested on the day of assay by centrifugation at 1200 rpm for 5 mins at room temperature. The cell pellet is resuspended in phosphate buffered saline and re-centrifuged. This operation is performed twice. […] The cells are then aliquoted into tubes and 0.75 ml of RPMI medium added, followed by 0.04-0.08 ml of 100 mM Chloroquine and finally 0.25 ml of DNA-complex solution. The transfection is then allowed to proceed by incubating the cells at 37° C. for 4 h. After this time the cells are harvested by centrifugation at 2000 rpm. The cells are then suspended in 1 ml of RPMI medium and re-centrifuged. Finally the cells are suspended in 0.5 ml RPMI medium containing 10% foetal bovine serum. Each 0.5 ml of transfected cell suspension is transferred to a well of a 12 well plastic culture plate containing 1.5 ml of RPMI 10% FBS. The original transfection tube is rinsed with a further 1 ml of medium and the wash transferred to the culture dish making a final volume of 3 ml. The culture plate is then incubated at 37° C. for 24-90 h in an atmosphere of 5% CO2. The contents of each well in the culture dish are transferred to centrifuge tubes and the cells collected by centrifugation at 13000 rpm. The pellet is resuspended in 0.12 ml of Lysis Buffer (100 mM sodium phosphate, pH 7.8; 8 mM magnesium chloride, 1 mM EDTA; 1% Triton X-100 and 15% glycerol) and agitated with a pipette. The lysate is centrifuged at 13000 rpm for 1 min and the supernatant collected. 80 μl of the supernatant are transferred to a luminometer tube. The luciferase activity is then assayed using a Berthold Lumat L9501 luminometer. The assay buffer used is Lysis Buffer containing 10 mM Luciferin and 100 mM ATP. Light produced by the luciferase is integrated over 4s and is described as relative light units (RLU). The data are converted to RLU/ml of lysate, RLU/cell or RLU/mg protein (protein concentration of the lysate having been determined in this case by the BioRAD Lowry assay.
In order to compare the relative efficiency of transfection of complexes composed of different NBC condensation peptides or poly-L-lysine, pRSVLuc DNA at a concentration of 100 μg/ml was condensed using peptide at a ratio of 2 μg/μg plasmid DNA as described herein with the following deviation: prior to addition to the cells (Jurkat cell line) the complexes were diluted to 20 μg/ml with 10% PEG 10 000; 37 mM sodium chloride; 25 mM sodium phosphate, pH 7.4. The cells were assayed for luciferase after 24 h.

Tumor Cells = assay: In vitro transfection with complexes containing lipidated peptides; assay type: cell-based
Procedure: as §1
For the data provided in FIG. 8, complexes were assembled as described herein using NBC2 and Lip2 as condensing peptides.

## NH2-KKSPKKAKKPAAKKSPKKAKKPAAKKSPKKAKKPAAKKSPKKAKKPAYC(Acm)-COOH (H-KKSPKKAKKPAAKKSPKKAKKPAAKKSPKKAKKPAAKKSPKKAKKPAYC(Acm)-OH) [NBC10]
[1]; apparent rate constant for association, SPR, PBS, 25° C.
  ka: 219000 M⁻¹ s⁻¹
[1]; apparent rate constant for dissociation, SPR, PBS, 25° C.
  kd: 0.0011 s⁻¹
[1]; approximate values
  apparent dissociation constant kd: approximately 1×10^-3 sec^-1
[1]; approximate values, read-out: equilibrium dissociation constant KD
  pKd: ~8.30
cells
  transfection efficiency: not completely deleterious to transfection

## poly-lysine [reference compound]
[2]
  ranking by numbers of transfected tumor cells (most to least efficient): NBC15>NBC8, NBC9, NBC11>NBC7>>>poly-lysine
[2]; 48 h, nitroreductase immunostaining
  number of transfected tumor cells / level of transfection: the fewest number of transfected tumor cells
Jurkat cell line
  rank in order of relative transfection efficiency (most to least efficient): NBC11>NBC13>NBC8>>NBC15>>>polylysine

## CH3-(CH2)14-CONH-KPKAAKPKKPKKKRKVEKKSPKKAKKPAAC(Acm)SEQ ID NO:11-COOH (Palmitoyl-KPKAAKPKKPKKKRKVEKKSPKKAKKPAAC(Acm)-OH; SMILES CCCCCCCCCCCCCCCC(=O)N[C@@H](CCCCN)C(=O)N1CCC[C@H]1C(=O)N[C@@H](CCCCN)C(=O)N[C@@H](C)C(=O)N[C@@H](C)C(=O)N[C@@H](CCCCN)C(=O)N1CCC[C@H]1C(=O)N[C@@H](CCCCN)C(=O)N[C@@H](CCCCN)C(=O)N1CCC[C@H]1C(=O)N[C@@H](CCCCN)C(=O)N[C@@H](CCCCN)C(=O)N[C@@H](CCCCN)C(=O)N[C@@H](CCCNC(=N)N)C(=O)N[C@@H](CCCCN)C(=O)N[C@H](C(=O)N[C@@H](CCC(=O)O)C(=O)N[C@@H](CCCCN)C(=O)N[C@@H](CCCCN)C(=O)N[C@@H](CO)C(=O)N1CCC[C@H]1C(=O)N[C@@H](CCCCN)C(=O)N[C@@H](CCCCN)C(=O)N[C@@H](C)C(=O)N[C@@H](CCCCN)C(=O)N[C@@H](CCCCN)C(=O)N1CCC[C@H]1C(=O)N[C@@H](C)C(=O)N[C@@H](C)C(=O)N[C@@H](CSCNC(C)=O)C(=O)O)C(C)C) [Lip2]
Tumor Cells; Lip2 with NBC2, FIG. 8
  transfection efficiency, lipidated peptide with free underivatized peptide: transfection efficiency is augmented; also recorded: more than two orders of magnitude
Tumor Cells; complete condensation with palmitoyl-NBC2 (Lip2) alone
  transfection efficiency, condensation with lipidated peptide alone: extremely poor transfection efficiencies
